Source: patent US5252495A, “Immunoassay for physostigmine” (priority 1992, dated 1993)

Columns and labels:
[1] = target: Antibody from Mannich Immunogen; assay: RIA cross-reactivity: competition with labeled physostigmine for antibody from Mannich immunogen; assay type: binding, New Zealand white rabbits; conditions: 1:100, max 1000 ng tested
Protocol: (§1) Antibodies to the physostigmine-BSA immunogen were produced by injecting male New Zealand white rabbits with immunogens formed by either method. Prior to injection, the immunogen was emulsified with an equal volume of complete Freund's adjuvant, purchased from Difco Laboratories of Detroit, Mich. The initial immunization consisted of 0.8 mg of protein injected intracutaneously in multiple dorsal sites of the rabbits. Booster injections containing 0.8 mg of immunogen and incomplete Freund's adjuvant were administered every two months for the next six months. Antisera was collected one week after each booster injection from the central ear vein. The blood was allowed to clot at room temperature and then centrifuged at 1500×g for 15 minutes. The separated serum was stored frozen at -20° C. until assayed for the presence of physostigmine antibody.
(§2) In the assay procedure ^3 H-Physostigmine having specificity of 19.0 Ci/mmole and purchased from the Amersham Corp. of Arlington Heights, Ill., was used as tracer. […] Both standard and sample tubes were always analyzed in duplicate. The assay was carried out according to the protocol shown in Table 1 with the reagents were added to the assay tubes in the order shown.
(§3) According to the protocol for the RIA of the present invention, after the addition of antisera, the contents of the tubes were mixed and incubated for 3 hours at 4° C. The antigen which bound to the antibody was separated by adding saturated ammonium sulfate and centrifuging at 2500×g for 15 minutes. After aspiration of the supernatant, the precipitate was washed one time with 50% saturated ammonium sulfate; then the mixture was centrifuged and the supernatent removed. The precipitate was dissolved in 1.0 ml of distilled water, and the solution was transferred to a scintillation vial containing 10.0 ml of acquasol 2.
(§4) The radioactivity which was bound to the antibody was determined in counts per minute with a Beckman LS-3133P Liquid Scintillation Counter. […] The concentration of physostigmine is plotted on the horizontal axis, while the percent inhibition of binding radioactively labeled is plotted on the vertical axis. […] Concentrations of physostigmine in unknown samples were determined according to conventional calculations from the standard curve.
(§5) Competition of the compounds with labeled physostigmine (5000 dpm) for antibody binding sites was determined arbitrarily at 50% inhibition of the physostigmine on the standard curve. Each compound was tested for cross-reactivity with the antibody. The maximum concentration of each compound tested was 1000 ng.

[2] = cited from earlier work
[3] = particularly in plasma and blood; cited from earlier work
[4] = target: Antibody from Diazo-coupled Immunogen; assay: RIA cross-reactivity: competition with labeled physostigmine for antibody from diazo-coupled immunogen; assay type: binding, New Zealand white rabbits; conditions: 1:150, max 1000 ng tested
Protocol: as §1
as §2, with “tracer. The dilution of tracer (5000 dpm), antibody (1:150) and physostigmine standards (100-10,000 pg) were made using 0.01M phosphate buffer containing 150 mM sodium chloride with a pH of 7.4.” for “tracer.”
as §3, §4, §5

## CNC(=O)Oc1ccc2c(c1)[C@]1(C)CCN(C)[C@@H]1N2C [Physostigmine, physostigmine]
[1]
  IC50 (50% inhibition of binding of 3H-physostigmine): 1.35 ng
[2]; certain patients
  adverse muscarinic effects: nausea, vomiting, diarrhea, miosis, excessive salivation and sweating, abdominal cramps, bradycardia, bronchial secretion and bronchospasm
[2]; clinical use
  toxic level relative to therapeutic level: toxic at levels very close to those which produce therapeutic results
[2]; overdose
  effect of substantial over administration: cholinergic crisis leading to death
[2]; thrombophlebitis if administered intravenously
  other side effects: generalized weakness, muscle cramps, fasciculation, hypotension, and, if administered intraveneously, thrombophlebitis
[3]
  in vitro hydrolysis in biological solutions: extensive in vitro hydrolysis
[4]
  IC50 (50% inhibition of binding of 3H-physostigmine): 1.35 ng
